Data: the NIST ThermoML archive (doi:10.1016/j.jct.2010.11.004)
± gives the expanded uncertainty stated by the source.

conditions: 298.15 K; 101.33 kPa; Liquid; Vibrating tube method

mass density	SMILES
760.2 ± 0.24 kg/m3	CCCCCCCCCCCCCC [tetradecane]
745.28 ± 0.25 kg/m3	CCCCCCCCCCCC [dodecane]
820.63 ± 0.24 kg/m3	CCCCCCCCC(C)=O [2-decanone]

Further lines, the compound ahead of its results:

SMILES	mass density
CCCCCOCCCCC [dipentyl ether]	779.1 ± 0.24 kg/m3
CCCCCCCCCCCCCCCC [hexadecane]	770.31 ± 0.24 kg/m3
